In data set [1] the target is SARS-CoV-2 RdRp complex (Nsp7, Nsp8, Nsp12) (Severe acute respiratory syndrome coronavirus 2, UniProt P0DTD1). The data set can be described thus: biochemical. The conditions noted are these: full template-length RNA product.
The test system of data set [2] is Staphylococcus aureus Newman. As to the kind of experiment: Antimicrobial MIC determination, serial dilution in 96 well plates. The data set is classed as cell-based. The settings on record: 24 h at 37 °C.
The test system of the next data set is Acyrthosiphon pisum. As to the kind of experiment: Insecticidal activity, direct application to the posterior segment of adult insects. The data set is classed as in vivo. The conditions noted are these: for Death rate at 0.5 μg/insect: adult A. pisum, 0.5 μg/insect in acetone, survival after one hour; for Death rate at 0.5 μg/insect / Death rate: 20 insects; for Death rate: positive control, 0.5 microliter of 0.01 μg/mL in acetone, after one hour.

The test system of data set [3] is Mycobacterium smegmatis mc2 155. The data set can be described thus: Antimicrobial MIC determination, serial dilution in 96 well plates. The conditions noted are these: Mycolicibacterium smegmatis, MC2155. The data set is classed as cell-based.
The next data set relates to Huh 7.5 cells. As to the kind of experiment: MTT assay, non-infected cells. The data set is classed as cell-based. The settings on record: Homo sapiens, Huh7.5, 120 h.
Data set [4] has as its system Candida albicans DSM-1665. The data set can be described thus: Antimicrobial MIC determination, serial dilution in 96 well plates. In kind it is cell-based. The settings on record: DSM1665.
Another data set has as its system Pichia anomala. Described as above. The data set is classed as cell-based. The conditions noted are these: Hansenula anomala.
Data set [5] deals with Escherichia coli ΔacrB JW0451-2. The data set is described as above. The conditions noted are these: 24 h. In kind it is cell-based.
In a further data set the test system is Bacillus subtilis DSM-10. The data set is described as above. The data set is classed as cell-based.
Data set [6] has as its system Pseudomonas aeruginosa PA14. Described as above. The settings on record: 24 h at 37 °C. The data set is classed as cell-based.
In the next data set the test system is HCoV229E. As to the kind of experiment: cells. The settings on record: for IC50: HCoV229E replication in Huh-7.5 cells; for factor between cytotoxic activity (IC50 Huh-7.5) and antiviral activity (IC50 HCoV229E): IC50 Huh-7.5 versus IC50 HCoV229E. In kind it is cell-based, human pathogenic coronavirus HCoV229E.
The next data set concerns Escherichia coli BW25113. The data set can be described thus: Antimicrobial MIC determination, serial dilution in 96 well plates. The data set is classed as cell-based. The settings on record: 24 h at 37 °C.
In a further data set the test system is U-2 OS cells. As to the kind of experiment: MTT assay. The data set is classed as cell-based. The settings on record: Homo sapiens, U2OS, 120 h.
The next data set has as its system Huh-7.5 host cells. The settings on record: Huh-7.5 host cells in the antiviral assay.
The mark [7] stands for this setting: non-infected Huh 7.5 cells, 5 days at 37 °C.
[8] abbreviates: DSM10, 24 h at 37 °C, read-out: MIC.
Setting [9] is: Homo sapiens, Huh7.5, 48 h at 33 °C.

Molecules are shown by their SMILES. Values after ≈ are worked out from the molar mass of the structure shown. Read-outs that look alike come from different tables or passages of the source.

The term IC50 denotes the midpoint of a concentration-inhibition curve. A higher IC50 goes with a need for much substance. Usually MIC stands for the lowest concentration that inhibits growth of the organism. On to `CC(C)=CCC/C(C)=C/CC/C(C)=C/Cn1c(C)nc2cc(C)c(C)cc21` [Sandacrabin E], for which the IC50 in data set [1] is 43 µM; in the data set with Huh 7.5 cells (setting [7]) it was 6.72 µM; in the data set with HCoV229E (setting [9]) it was 1.91 µM; in the data set on U-2 OS cells (5 days at 37 °C), 13.7 µM. Besides, the MIC in [2] was 64 µg/mL (≈ 176 µM); in [3] it was 64 µg/mL (≈ 176 µM); in [4] it was greater than 64 µg/mL; in the data set on Pichia anomala it was greater than 64 µg/mL; in data set [5] it was greater than 64 µg/mL; in the data set with Bacillus subtilis DSM-10 (24 h at 37 °C), 64 µg/mL (≈ 176 µM). The minimal inhibitory concentration (MIC) is 64 µg/mL (≈ 176 µM) with Bacillus subtilis DSM-10 (setting [8]), greater than 64 µg/mL in data set [6] and greater than 64 µg/mL with Escherichia coli BW25113. In addition, the “Death rate at 0.5 μg/insect” value in the data set with Acyrthosiphon pisum amounted to 90%. Besides, the “factor between cytotoxic activity (IC50 Huh-7.5) and antiviral activity (IC50 HCoV229E)” value (from here on “factor between cytotoxic activity”) with HCoV229E is 3–4 fold.

For the molecule `CN[C@H](CC(C)C)C(=O)N[C@H]1C(=O)N[C@@H](CC(N)=O)C(=O)N[C@H]2C(=O)N[C@H]3C(=O)N[C@H](C(=O)N[C@H](C(=O)O)c4cc(O)cc(O)c4-c4cc3ccc4O)[C@H](O)c3ccc(c(Cl)c3)Oc3cc2cc(c3O[C@@H]2O[C@H](CO)[C@@H](O)[C@H](O)[C@H]2O[C@H]2C[C@](C)(N)[C@H](O)[C@H](C)O2)Oc2ccc(cc2Cl)[C@H]1O` [Vancomycin, reference compound], in the data set with Bacillus subtilis DSM-10 (setting [8]), the MIC lay in the range of 0.1 to 0.2 µg/mL (≈ 0.069 to 0.138 µM).

In the case of `CC(C)=CCC/C(C)=C/CC/C(C)=C/Cn1c(/C=C(\C)CC/C=C(\C)CCC=C(C)C)nc2cc(C)c(C)cc21` [Sandacrabin A], the IC50 in [1] is 108 µM; with Huh 7.5 cells (setting [7]) it was greater than 37 µM; in the data set with HCoV229E (setting [9]), greater than 10 µM; with U-2 OS cells (5 days at 37 °C) it was greater than 37 µM. The minimal inhibitory concentration (MIC) was 128 µg/mL (≈ 237 µM) in data set [2]; greater than 64 µg/mL in data set [3]; greater than 64 µg/mL in data set [4]; greater than 64 µg/mL in the data set with Pichia anomala; greater than 64 µg/mL in [5]; 32 µg/mL (≈ 59.2 µM) against Bacillus subtilis DSM-10 (24 h at 37 °C). Also, the MIC with Bacillus subtilis DSM-10 (setting [8]) is 32 µg/mL (≈ 59.2 µM); in [6], greater than 64 µg/mL; in the data set with Escherichia coli BW25113, greater than 64 µg/mL. The “Death rate at 0.5 μg/insect” value in the data set on Acyrthosiphon pisum came out at 10%. This molecule registered a minimal insecticidal concentration in the data set on Acyrthosiphon pisum (dilution series 5–0.05 μg per insect, test group of three insects) greater than 5 μg/insect. In addition, the “antiviral activity, effect on viral replication (in words)” value in the data set on HCoV229E (cells infected with HCoV229E) was “did not show any effect on viral replication”.

For `CC(C)=CCC/C(C)=C/CC/C(C)=C/Cn1c[n+](C/C=C(\C)CC/C=C(\C)CCC=C(C)C)c2cc(C)c(C)cc21` [Sandacrabin B], the IC50 came out at 3.5 µM in data set [1], 0.7 µM in the data set on Huh 7.5 cells (setting [7]), 0.18 µM in the data set with HCoV229E (setting [9]) and 0.51 µM in the data set with U-2 OS cells (5 days at 37 °C). For the same molecule, the minimum inhibitory concentration (MIC) was 64 to 128 µg/mL in data set [2]; greater than 64 µg/mL in [3]; greater than 64 µg/mL in [4]; greater than 64 µg/mL against Pichia anomala; greater than 64 µg/mL in data set [5]; 64 µg/mL in the data set on Bacillus subtilis DSM-10 (24 h at 37 °C). Besides, the MIC with Bacillus subtilis DSM-10 (setting [8]) was 64 µg/mL; in [6], greater than 64 µg/mL; with Escherichia coli BW25113, greater than 64 µg/mL. Besides, the “Death rate at 0.5 μg/insect” value in the data set on Acyrthosiphon pisum was determined as 100%. Also, the “cytotoxic effects on host cells (in words)” value in the data set on Huh-7.5 host cells is listed as “cytotoxic effects at the highest test concentration”. For the same molecule, the “factor between cytotoxic activity” value in the data set with HCoV229E is 3–4 fold.

For the molecule `CC(C)=CCC/C(C)=C/CC/C(C)=C/Cn1c(C)[n+](C/C=C(\C)CC/C=C(\C)CCC=C(C)C)c2cc(C)c(C)cc21` [Sandacrabin C], the IC50 in data set [1] amounted to 6.8 µM; with Huh 7.5 cells (setting [7]), 3.61 µM; in the data set on HCoV229E (setting [9]), 0.34 µM; with U-2 OS cells (5 days at 37 °C) it was 1.22 µM. For the same molecule, the MIC was 64 to 128 µg/mL in data set [2]; greater than 64 µg/mL in data set [3]; greater than 64 µg/mL in data set [4]; greater than 64 µg/mL against Pichia anomala; greater than 64 µg/mL in data set [5]; 128 µg/mL in the data set on Bacillus subtilis DSM-10 (24 h at 37 °C). Further, the MIC in the data set on Bacillus subtilis DSM-10 (setting [8]) is 128 µg/mL; in data set [6] it was greater than 64 µg/mL; against Escherichia coli BW25113 it was greater than 64 µg/mL. Also, the “Death rate at 0.5 μg/insect” value with Acyrthosiphon pisum was 90%. Further, the “cytotoxic effects on host cells (in words)” value with Huh-7.5 host cells is given as “cytotoxic effects at the highest test concentration”. In the data set with HCoV229E, the “factor between cytotoxic activity” value turned out to be 11 fold.

`COc1cccc2c1C(=O)c1c(O)c3c(c(O)c1C2=O)C[C@@](O)(C(=O)CO)C[C@@H]3O[C@H]1C[C@H](N)[C@H](O)[C@H](C)O1` [Doxorubicin, reference compound]: the 50% inhibitory concentration (IC50) with Huh 7.5 cells (positive control, Huh 7.5 cells, 5 days) is 0.037 µM; in the data set on U-2 OS cells (positive control, 5 days), 0.015 µM.

`CC(C)=CCC/C(C)=C/CC/C(C)=C/Cn1cnc2cc(C)c(C)cc21` [Sandacrabin D]: the 50% inhibitory concentration (IC50) was 85 µM in data set [1], 4.63 µM with Huh 7.5 cells (setting [7]), 1.64 µM with HCoV229E (setting [9]) and 16.9 µM in the data set on U-2 OS cells (5 days at 37 °C). In addition, the MIC is 64 µg/mL (≈ 183 µM) in data set [2]; 64 µg/mL (≈ 183 µM) in [3]; greater than 64 µg/mL in [4]; greater than 64 µg/mL against Pichia anomala; greater than 64 µg/mL in data set [5]; 64 µg/mL (≈ 183 µM) in the data set with Bacillus subtilis DSM-10 (24 h at 37 °C). Also, the results for the MIC (in the data set on Bacillus subtilis DSM-10 (setting [8]); in [6]; against Escherichia coli BW25113) were 64 µg/mL (≈ 183 µM), greater than 64 µg/mL and greater than 64 µg/mL, respectively. In addition, the “Death rate at 0.5 μg/insect” value in the data set on Acyrthosiphon pisum stood at 100%. Also, the “factor between cytotoxic activity” value in the data set on HCoV229E is 3–4 fold.

Consider `CCC(CC)COC(=O)[C@H](C)N[P@](=O)(OC[C@H]1O[C@@](C#N)(c2ccc3c(N)ncnn23)[C@H](O)[C@@H]1O)Oc1ccccc1` [Remdesivir, reference compound], for which, in the data set with HCoV229E (positive control, 48 h), 0.0056 µM corresponded to half-maximal inhibition (IC50).

On to `O=[N+]([O-])NC1=NCCN1Cc1ccc(Cl)nc1` [Imidacloprid, reference compound], for which the results for the Death rate with Acyrthosiphon pisum and in the data set with Acyrthosiphon pisum (listed as imidacloprid) were 100 (Imidacloprid) % and 100%, respectively.

The values above are taken from paper PMC9306752, “Sandacrabins – Structurally Unique Antiviral RNA Polymerase Inhibitors from a Rare Myxobacterium” (Chemistry (Weinheim an Der Bergstrasse, Germany), 2022).
